≈ marks a conversion by molar mass, not a printed value. Read-outs that look alike come from different tables or passages of the source.
How the values were obtained:
Test in all cases: microbe, parasite or virus in culture
[1] = tested on: S. aureus MRSA N315; assay type: cell-based, Staphylococcus aureus; settings: for MIC: raw MIC
From the text: (§1) Three bacterial strains of MRSA (N315, 12673, 6347) and two of Enterococcus spp. (E. faecium, E. faecalis) were used. With respect to MRSA, N315 represented a reference Van-susceptible strain (GenBank GCA_00000645.1) isolated from a patient while 12673 (Van-intermediately susceptible) and 6347 (a h-VISA which appears at frequency of <10^−5 to 10^−6 is composed of two subpopulations of bacteria: one susceptible and one intermediately resistant)[38] were clinical strains obtained from patients of The Clinical University Centre of Gdańsk (UCK). […] The clinical strain isolates originated from the collection of the Department of Pharmaceutical Technology and Biochemistry, Faculty of Chemistry, Gdańsk University of Technology.
(§2) The strains were grown in Mueller-Hinton broth (MH cation-adjusted, Becton Dickinson) or Brain Heart Infusion broth (BHI, Becton Dickinson), respectively. The cultivation was carried out in an aerobic atmosphere at 37 °C for 24 hours and, afterwards, the bacterial cultures were diluted in geometric progression with a proper broth. Next, 100 µl of each dilution was inoculated in an agar plate and incubated at 37 °C for 24 h. The next procedures included determination of Colony Forming Units (CFU)/ml and minimal inhibitory concentration (MIC) of the compounds in question. The latter procedure was carried out according to the microbroth dilution technique using 96-well plates. The MICs were evaluated by using the metabolic assay based on the resazurin dye. The assay was performed in triplicates.

[2] = tested on: S. aureus MRSA 12673; assay type: cell-based, Staphylococcus aureus; settings: for MIC: raw MIC
From the text: as §1, §2

[3] = tested on: S. aureus MRSA hetero-VISA 6347; assay type: cell-based, Staphylococcus aureus; settings: for MIC: raw MIC
From the text: as §1, §2

[4] = tested on: Enterococcus faecium 3934825; assay type: cell-based; settings: for MIC: raw MIC
From the text: as §1, §2

[5] = tested on: Enterococcus faecalis 3937158; assay type: cell-based
From the text: as §1, §2

[6] = first block, test a, repetition 1, read-out: MIC1a
[7] = first block, test a, repetition 2, read-out: MIC2a
[8] = first block, test a, repetition 3, read-out: MIC3a
[9] = first block, test b, repetition 1, read-out: MIC1b
[10] = first block, test b, repetition 2, read-out: MIC2b
[11] = first block, test b, repetition 3, read-out: MIC3b
[12] = test a, repetition 1, read-out: MIC1a
[13] = test a, repetition 2, read-out: MIC2a
[14] = test a, repetition 3, read-out: MIC3a
[15] = test b, repetition 1, read-out: MIC1b
[16] = test b, repetition 2, read-out: MIC2b
[17] = test b, repetition 3, read-out: MIC3b
[18] = same test as μM value, mean ± SD

CC[C@H](C)[C@H](NC(=O)[C@H](CCCCN)NC(=O)[C@H](CCCCN)NC(=O)[C@H](C)NC(=O)[C@H](CC(C)C)NC(=O)[C@H](C)NC(=O)[C@H](C)NC(=O)[C@H](CC(C)C)NC(=O)[C@H](C)NC(=O)[C@H](CCCCN)NC(=O)[C@H](CC(C)C)NC(=O)[C@H](CC(N)=O)NC(=O)[C@@H](NC(=O)[C@H](CCCCN)NC(=O)CNC(=O)[C@H](CC(C)C)NC(=O)[C@H](CC(C)C)NC(=O)[C@H](Cc1ccc(O)cc1)NC(=O)CNC(=O)[C@H](C)N)[C@@H](C)CC)C(=O)N[C@@H](CC(C)C)C(=O)N[C@@H](Cc1cn(CCOCCOCCOCCOCCC(=O)N[C@@]2(C)C[C@H](O[C@H]3[C@H](Oc4c5cc6cc4Oc4ccc(cc4Cl)[C@@H](O)[C@@H](NC(=O)[C@@H](CC(C)C)NC)C(=O)N[C@@H](CC(N)=O)C(=O)N[C@H]6C(=O)N[C@H]4C(=O)N[C@H](C(=O)N[C@H](C(=O)O)c6cc(O)cc(O)c6-c6cc4ccc6O)[C@H](O)c4ccc(c(Cl)c4)O5)O[C@H](CO)[C@@H](O)[C@@H]3O)O[C@@H](C)[C@H]2O)nn1)C(N)=O [conjugate III, TP10-Ala(PEG4-Van)]
MIC [1, 6]: 12.5 µM (≈ 50 µg/mL)
MIC [1, 7]: 6.25 µM (≈ 25 µg/mL)
MIC [1, 8]: 12.5 µM (≈ 50 µg/mL)
MIC [1, 9]: 12.5 µM (≈ 50 µg/mL)
MIC [1, 10]: 12.5 µM (≈ 50 µg/mL)
MIC [1, 11]: 6.25 µM (≈ 25 µg/mL)
MIC [1, 12]: 50.01 µM (≈ 200 µg/mL)
MIC [1, 13]: 25.01 µM (≈ 100 µg/mL)
MIC [1, 14]: 50.01 µM (≈ 200 µg/mL)
MIC [1, 15]: 50.01 µM (≈ 200 µg/mL)
MIC [1, 16]: 50.01 µM (≈ 200 µg/mL)
MIC [1, 17]: 25.01 µM (≈ 100 µg/mL)
MIC in (μg/ml) [1, 18]: 50.0 ± 12.9 µg/mL (≈ 12.5 µM)
MIC [2, 6]: 0.78 µM (≈ 3.12 µg/mL)
MIC [2, 7]: 1.56 µM (≈ 6.24 µg/mL)
MIC [2, 8]: 0.78 µM (≈ 3.12 µg/mL)
MIC [2, 9]: 0.78 µM (≈ 3.12 µg/mL)
MIC [2, 10]: 1.56 µM (≈ 6.24 µg/mL)
MIC [2, 11]: 0.78 µM (≈ 3.12 µg/mL)
MIC [2, 12]: 3.12 µM (≈ 12.5 µg/mL)
MIC [2, 13]: 6.24 µM (≈ 25 µg/mL)
MIC [2, 14]: 3.12 µM (≈ 12.5 µg/mL)
MIC [2, 15]: 3.12 µM (≈ 12.5 µg/mL)
MIC [2, 16]: 6.24 µM (≈ 25 µg/mL)
MIC [2, 17]: 3.12 µM (≈ 12.5 µg/mL)
MIC in (μg/ml) [2, 18]: 3.1 ± 1.6 µg/mL (≈ 0.775 µM)
MIC [3, 6]: 1.6 µM (≈ 6.4 µg/mL)
MIC [3, 7]: 0.78 µM (≈ 3.12 µg/mL)
MIC [3, 8]: 0.78 µM (≈ 3.12 µg/mL)
MIC [3, 9]: 1.6 µM (≈ 6.4 µg/mL)
MIC [3, 10]: 1.6 µM (≈ 6.4 µg/mL)
MIC [3, 11]: 1.6 µM (≈ 6.4 µg/mL)
MIC [3, 12]: 6.4 µM (≈ 25.6 µg/mL)
MIC [3, 13]: 3.2 µM (≈ 12.8 µg/mL)
MIC [3, 14]: 3.2 µM (≈ 12.8 µg/mL)
MIC [3, 15]: 6.4 µM (≈ 25.6 µg/mL)
MIC [3, 16]: 6.4 µM (≈ 25.6 µg/mL)
MIC [3, 17]: 6.4 µM (≈ 25.6 µg/mL)
MIC in (μg/ml) [3, 18]: 6.4 ± 1.7 µg/mL (≈ 1.6 µM)
MIC [4, 6]: 12.5 µM (≈ 50 µg/mL)
MIC [4, 7]: 6.25 µM (≈ 25 µg/mL)
MIC [4, 8]: 12.5 µM (≈ 50 µg/mL)
MIC [4, 9]: 6.25 µM (≈ 25 µg/mL)
MIC [4, 10]: 12.5 µM (≈ 50 µg/mL)
MIC [4, 11]: 12.5 µM (≈ 50 µg/mL)
MIC [4, 12]: 50.01 µM (≈ 200 µg/mL)
MIC [4, 13]: 25.01 µM (≈ 100 µg/mL)
MIC [4, 14]: 50.01 µM (≈ 200 µg/mL)
MIC [4, 15]: 25.01 µM (≈ 100 µg/mL)
MIC [4, 16]: 50.01 µM (≈ 200 µg/mL)
MIC [4, 17]: 50.01 µM (≈ 200 µg/mL)
MIC in (μg/ml) [4, 18]: 50.0 ± 12.9 µg/mL (≈ 12.5 µM)
MIC ([5]; microbroth dilution, 96-well, resazurin, 37 °C, 24 h, mean ± SD, at least three independent experiments in triplicates): 25.0 ± 5.1 µM (≈ 100 µg/mL)
MIC ([5]; raw MIC, first block, test a, repetition 1, read-out: MIC1a): 25 µM (≈ 100 µg/mL)
MIC ([5]; raw MIC, first block, test a, repetition 2, read-out: MIC2a): 25 µM (≈ 100 µg/mL)
MIC ([5]; raw MIC, first block, test a, repetition 3, read-out: MIC3a): 25 µM (≈ 100 µg/mL)
MIC ([5]; raw MIC, first block, test b, repetition 1, read-out: MIC1b): 12.5 µM (≈ 50 µg/mL)
MIC ([5]; raw MIC, first block, test b, repetition 2, read-out: MIC2b): 25 µM (≈ 100 µg/mL)
MIC ([5]; raw MIC, first block, test b, repetition 3, read-out: MIC3b): 25 µM (≈ 100 µg/mL)
MIC ([5]; raw MIC, test a, repetition 1, read-out: MIC1a): 100.02 µM (≈ 400 µg/mL)
MIC ([5]; raw MIC, test a, repetition 2, read-out: MIC2a): 100.02 µM (≈ 400 µg/mL)
MIC ([5]; raw MIC, test a, repetition 3, read-out: MIC3a): 100.02 µM (≈ 400 µg/mL)
MIC ([5]; raw MIC, test b, repetition 1, read-out: MIC1b): 50.01 µM (≈ 200 µg/mL)
MIC ([5]; raw MIC, test b, repetition 2, read-out: MIC2b): 100.02 µM (≈ 400 µg/mL)
MIC ([5]; raw MIC, test b, repetition 3, read-out: MIC3b): 100.02 µM (≈ 400 µg/mL)
MIC in (μg/ml) [5, 18]: 100.0 ± 20.4 µg/mL (≈ 25 µM)
